# In patent US8871728B2, “Non-peptide macrocyclic histone deacetylese (HDAC) inhibitors and methods of making and using thereof” (Georgia Tech Research Corporation, priority 2007, dated 2014):
# Several values for one entry are separate records, joined by “and”; a condition that tells them apart may be missing. Equal entries are not always repeated. Where two headings read alike, the source gives them in different places.
# Tests used:
# HMEC = assay: Cell viability, trypan blue exclusion; format: cell-based; conditions: Homo sapiens; untransformed cells
# Source text: (§1) Most importantly, the compounds we less toxic to untransformed cell-lines (lung fibroblast and HMEC).
# (§2) Most importantly, these compounds are less toxic to untransformed cell-lines (lung fibroblast and HMEC) that we have studied to date.
# NCI-H69 = assay: Cell viability, trypan blue exclusion; format: cell-based; conditions: Homo sapiens
# Source text: as §1, §2
# DU 145 cells = assay: Cell viability, trypan blue exclusion; format: cell-based; conditions: Homo sapiens
# Source text: as §1, §2
# SKMES 1 = assay: Cell viability, trypan blue exclusion; format: cell-based; conditions: Homo sapiens, SK-MES-1
# Source text: as §1, §2
# lung fibroblasts = assay: Cell viability, trypan blue exclusion; format: cell-based; conditions: Fibroblast; untransformed cells
# Source text: as §1, §2
# HDAC8 [1] = molecular target: T1, HDAC8 (Homo sapiens (Human), UniProt Q9BY41); assay: Fluor de Lys HDAC8 inhibition; format: biochemical; conditions: average of three independent experiments; Table 4; read-out: HDAC 8
# T1 sequence (Q9BY41 whole entry): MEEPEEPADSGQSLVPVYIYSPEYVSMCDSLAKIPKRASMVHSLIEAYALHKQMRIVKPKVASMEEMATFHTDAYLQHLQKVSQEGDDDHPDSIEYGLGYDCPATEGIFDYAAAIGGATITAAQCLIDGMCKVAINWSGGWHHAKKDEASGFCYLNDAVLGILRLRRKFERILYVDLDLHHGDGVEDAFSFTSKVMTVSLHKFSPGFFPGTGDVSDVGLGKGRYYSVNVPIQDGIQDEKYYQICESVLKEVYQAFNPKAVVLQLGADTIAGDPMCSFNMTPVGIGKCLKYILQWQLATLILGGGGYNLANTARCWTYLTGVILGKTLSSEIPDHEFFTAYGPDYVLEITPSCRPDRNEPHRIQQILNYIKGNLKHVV
# [2] = tested on: HeLa nuclear extract HDAC1/2; assay: Fluor de Lys HDAC inhibition, HeLa nuclear extract; format: biochemical, human; conditions: HeLa nuclear extract; average of three independent experiments; Table 4; read-out: HDAC ½
# Source text: Fluor de Lys™ is a fluorescence based HDAC activity assay comprising a combination of fluorogenic Histone deAcetylase Lysyl substrate and a developer. The kit is a highly sensitive and convenient alternative to radiolabeled, acetylated histones or peptide/HPLC methods for the assay of histone deacetylases. This assay is based on the ability of HeLa nuclear extract, which is enriched in HDAC activity, to mediate the deacetylation of the acetylated lysine side chain of the Fluor de Lys substrate. The assay procedure requires two steps. First, incubation of the HeLa nuclear extract with the Fluor de Lys substrate results in substrate deacetylation and thus sensitizes it to the second step. In the second step, treatment of the deacetylated substrate with the Fluor de Lys developer produces a fluorophore. The substrate-developer reaction, under normal circumstances goes to completion in less than 1 min at 25° C. The kit used was the Fluorimetric Assay/Drug Discovery Kit—AK-500 Manual Fluorescent Assay System available from BIOMOL® International, Plymouth Meeting, Pa.
# Each IC50 value was obtained by averaging three independent experiments.
# HDAC8 [3] = molecular target: T1, HDAC8; assay: SAMDI mass spectrometry HDAC inhibition assay; format: biochemical
# Description: (§3) There is precedence that fluorescently labeled substrates can perturb enzyme activity and the effect of inhibitors. […] Additionally, 3-hydroxypyridine-2-ones are highly colored solids and might lead to false positive signals. Mindful of these facts, a label-free SAMDI (self-assembled monolayers for MALDI) mass spectrometry assay was also used to assess HDAC inhibition.
# (§4) The SAMDI technique, wherein self-assembled monolayers (SAM) of alkanethiolates on gold are analyzed by matrix assisted laser desorption/ionization (MALDI) mass spectrometry, has been widely used to characterize many biochemical activities, including the deacetylase enzyme family.
# [4] = tested on: Jurkat (T cell leukemia overexpressing HDAC8); assay: Anti-cancer activity screen; format: cell-based
# HDAC6 = HDAC6 (Homo sapiens (Human), UniProt Q9UBN7); assay: SAMDI mass spectrometry HDAC inhibition assay; format: biochemical
# HDAC6, sequence (Q9UBN7 whole entry): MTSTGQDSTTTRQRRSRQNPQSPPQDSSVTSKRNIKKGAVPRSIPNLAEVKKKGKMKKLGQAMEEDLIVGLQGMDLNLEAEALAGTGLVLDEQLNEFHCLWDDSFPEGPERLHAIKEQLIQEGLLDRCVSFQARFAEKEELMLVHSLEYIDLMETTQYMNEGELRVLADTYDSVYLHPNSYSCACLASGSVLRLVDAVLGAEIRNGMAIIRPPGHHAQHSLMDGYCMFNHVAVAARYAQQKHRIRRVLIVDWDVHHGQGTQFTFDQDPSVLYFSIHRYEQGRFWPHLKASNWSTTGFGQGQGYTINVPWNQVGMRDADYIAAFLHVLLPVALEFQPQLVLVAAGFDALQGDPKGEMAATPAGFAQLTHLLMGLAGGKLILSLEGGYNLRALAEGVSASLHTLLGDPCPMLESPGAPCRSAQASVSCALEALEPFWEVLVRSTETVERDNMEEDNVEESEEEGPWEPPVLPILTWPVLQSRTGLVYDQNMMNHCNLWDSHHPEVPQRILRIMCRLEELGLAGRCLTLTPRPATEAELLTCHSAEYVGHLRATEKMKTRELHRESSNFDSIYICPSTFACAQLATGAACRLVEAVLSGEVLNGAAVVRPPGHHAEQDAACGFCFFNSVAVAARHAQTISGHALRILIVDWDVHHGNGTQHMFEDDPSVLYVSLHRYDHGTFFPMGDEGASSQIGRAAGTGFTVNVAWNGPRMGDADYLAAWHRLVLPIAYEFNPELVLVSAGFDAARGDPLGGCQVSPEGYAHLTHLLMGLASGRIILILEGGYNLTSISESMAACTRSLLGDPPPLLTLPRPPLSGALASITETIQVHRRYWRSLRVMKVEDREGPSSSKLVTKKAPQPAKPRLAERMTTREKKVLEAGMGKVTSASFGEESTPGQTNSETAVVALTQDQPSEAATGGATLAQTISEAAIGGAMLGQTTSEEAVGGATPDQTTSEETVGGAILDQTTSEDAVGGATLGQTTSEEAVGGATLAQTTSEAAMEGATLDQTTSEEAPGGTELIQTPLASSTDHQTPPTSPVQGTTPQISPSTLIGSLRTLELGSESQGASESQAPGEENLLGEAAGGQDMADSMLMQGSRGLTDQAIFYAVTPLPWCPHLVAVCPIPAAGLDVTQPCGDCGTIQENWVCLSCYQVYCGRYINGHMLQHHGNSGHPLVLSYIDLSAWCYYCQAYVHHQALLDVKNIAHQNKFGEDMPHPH
# Description: as §3
# as §4, with “family. The SAMDI assay was used to measure the inhibition constant (K1) of fragments against HDAC1, HDAC6 and HDAC8 using a previously identified preferred HDAC substrate.” for “family.”
# [5] = tested on: LNCaP (androgen dependent prostate cancer); assay: Anti-cancer activity screen; format: cell-based
# [6] = tested on: promastigote stage of L. donovani; assay: Antileishmanial Alamar blue fluorometric assay; format: cell-based; conditions: promastigotes
# Description: (§5) The compounds described herein were also evaluated for parasitic activity against Plasmodium falciparum and Leismania donovani. P. falciparum and L. donovani are the causative parasites of malaria and leishmaniasis, two human diseases which constitute a serious threat to public health in tropical and sub-tropical countries. Antimalarial activity was evaluated in vitro using chloroquine-sensitive (D6, Sierra Leone) and chloroquine-resistant (W2, Indochina) strains of P. falciparum. Antileishmanial activity was evaluated in vitro against the promastigote stage of L. donovani.
# (§6) Plasmodium growth inhibition was determined by a parasite lactate dehydrogenase assay using Malstat reagent. Inhibition of viability of the promastigote stage of L. donovani was determined using standard Alamar blue assay, modified to a fluorometric assay.
# as §5, with “Macrocyclic histone deacetylase inhibitors” for “The compounds described herein”, “were” for “were also”
# as §6
# HDAC1 = HDAC1 (Homo sapiens (Human), UniProt Q13547); assay: SAMDI mass spectrometry HDAC inhibition assay; format: biochemical; conditions: for HDAC1 inhibition, symbol: SAMDI
# HDAC1, sequence (Q13547 whole entry): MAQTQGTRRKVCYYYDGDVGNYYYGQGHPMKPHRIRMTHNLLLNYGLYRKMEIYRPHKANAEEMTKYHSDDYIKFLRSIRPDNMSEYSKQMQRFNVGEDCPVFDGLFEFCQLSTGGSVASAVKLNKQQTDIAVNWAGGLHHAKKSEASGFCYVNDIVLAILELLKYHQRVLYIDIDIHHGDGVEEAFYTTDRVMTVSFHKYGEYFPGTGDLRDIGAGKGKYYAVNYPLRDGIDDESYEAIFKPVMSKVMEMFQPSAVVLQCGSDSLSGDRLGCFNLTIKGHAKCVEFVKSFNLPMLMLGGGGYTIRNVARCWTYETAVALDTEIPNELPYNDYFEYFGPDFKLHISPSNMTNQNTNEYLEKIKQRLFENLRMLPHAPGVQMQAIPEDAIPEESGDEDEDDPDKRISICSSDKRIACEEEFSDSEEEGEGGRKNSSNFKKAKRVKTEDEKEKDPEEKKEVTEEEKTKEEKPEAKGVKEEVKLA
# Description: as §3, §4
# [7] = tested on: DU 145 (androgen independent prostate cancer); assay: Anti-cancer activity screen; format: cell-based
# [8] = Table 14, read-out: HDAC 8 (nm)
# [9] = Homo sapiens, Jurkat, read-out: Jurkat (μm)
# [10] = Table 14, read-out: HDAC 6 (nm)
# [11] = Homo sapiens, DU-145, calculated IC50 above 20 μM (highest concentration tested) also reported as >20
compound,measurement,setting,value
"CC[C@H]1OC(=O)[C@H](C)[C@@H](O)[C@H](C)[C@@H](O[C@@H]2O[C@H](C)C[C@H](N(C)Cc3ccc(-c4cn(CCCCCCCC(=O)NO)nn4)cc3)[C@H]2O)[C@](C)(OC)C[C@@H](C)C(=O)[C@H](C)[C@@H](O)[C@]1(C)O [Compound 28, Descladinose-Clarithromycin-N-Phenyltriazolyloctahydroxamic acid]",EC50,HMEC,> 10 µM
same,EC50,NCI-H69,5.09 µM
same,EC50,DU 145 cells,5.78 µM
same,EC50,SKMES 1,4.45 µM
same,EC50,lung fibroblasts,> 10 µM
same,IC50,HDAC8 [1],4.42 µM
same,IC50,[2],0.123 µM
"N#Cc1cccc(-c2cn(CCCCCn3cccc(O)c3=S)nn2)c1 [Compound 167e, 1-(3-Benzonitrile)triazolylpentyl-3-hydroxypyridine-2-thione]",IC50,"HDAC8 [3]; SAMDI, read-out: HDAC8 IC50",2.83 µM
same,IC50,HDAC8 [3]; [8],2.4 ± 0.263 µM
same,IC50,[4]; [9],5.18 ± 1.18 µM
same,IC50,[4]; read-out: Jurkat (μm),3.44 ± 0.57 µM
same,IC50,"HDAC6; SAMDI, read-out: HDAC6 IC50",0.356 µM
same,IC50,HDAC6; [10],0.637 µM and 0.356 µM
same,IC50,[5],3.49 ± 0.34 µM
same,IC50,"[5]; Homo sapiens, LNCaP",4.95 ± 0.43 µM
"CC[C@H]1OC(=O)[C@H](C)[C@@H](O[C@H]2C[C@@](C)(OC)[C@@H](O)[C@H](C)O2)[C@H](C)[C@@H](O[C@@H]2O[C@H](C)C[C@H](N(C)Cc3ccc(-c4cn(CCCCCCCC(=O)NO)nn4)cc3)[C@H]2O)[C@](C)(OC)C[C@@H](C)C(=O)[C@H](C)[C@@H](O)[C@]1(C)O [Compound 27, Clarithromycin-N-Phenyltriazolyloctahydroxamic acid]",EC50,HMEC,> 10 µM
same,EC50,NCI-H69,5.67 µM
same,EC50,DU 145 cells,6.97 µM
same,EC50,SKMES 1,4.89 µM
same,EC50,lung fibroblasts,> 10 µM
same,IC50,HDAC8 [1],5.88 µM
same,IC50,[2],0.0556 µM
"N=C(N)c1ccc(OCCCCCOc2ccc(C(=N)N)cc2)cc1 [Pentamidine, pentamidine, reference compound]",IC50,"[6]; Leishmania donovani, read-out: Antileshmanial activity IC50",0.9 µg/mL
same,Antileshmanial activity IC50,[6],1.4 µg/mL
"Oc1cccn(CCCCCn2cc(-c3ccccc3)nn2)c1=S [Compound 162d, 1-Phenyltriazolylpentyl-3-hydroxypyridine-2-thione]","HDAC1 inhibition, symbol",HDAC1,NI (No significant Inhibition (below 20% Inhibition))
same,HDAC1 % inhibition,"HDAC1; at 10 μM, given if the IC50 was above 10 μM",30%
same,HDAC8 activity difference between 162d and 162e,HDAC8 [3]; SAMDI,~7 fold
same,IC50,"HDAC8 [3]; SAMDI, read-out: HDAC8 IC50",0.917 µM
same,IC50,HDAC8 [3]; [8],0.917 ± 0.139 µM
same,IC50,[4]; read-out: Jurkat (μm),3.27 ± 0.6 µM
same,IC50,[7],9.33 ± 0.96 µM
same,IC50,"HDAC6; SAMDI, read-out: HDAC6 IC50",0.911 µM
same,IC50,HDAC6; [10],0.911 ± 0.173 µM
same,IC50,[5],5.43 ± 0.47 µM
Oc1cccn(Cc2ccc(Cn3cc(-c4ccccc4)nn3)cc2)c1=S [Compound 168],"HDAC1 inhibition, symbol",HDAC1,NI (No significant Inhibition (below 20% Inhibition))
same,IC50,HDAC8 [3]; [8],5.47 ± 1.6 µM
same,IC50,"[4]; Homo sapiens, Jurkat; read-out: Jurkat (μm)",6.55 ± 0.91 µM
same,IC50,[7]; [11],16.1 ± 2.24 µM
same,IC50,HDAC6; [10],0.534 ± 0.185 µM
same,IC50,"[5]; Homo sapiens, LNCaP",7.8 ± 0.55 µM
"CN(C)c1ccc(-c2ccc(Cn3cccc(O)c3=S)cc2)cc1 [Compound 149g, 1-(4-Dimethylamino-(1,1′-biphenylmethyl))-3-hydroxyoxypyridine-2-thione]","HDAC1 inhibition, symbol",HDAC1,NI (No significant Inhibition (below 20% Inhibition))
same,IC50,HDAC8 [3]; [8],2.86 ± 0.944 µM
same,IC50,[4]; [9],10.6 ± 0.97 µM
same,IC50,[7]; [11],> 20 µM
same,IC50,[7]; calculated IC50 above 20 μM (highest concentration tested) also reported as >20,22.8 ± 3.8 µM
same,"HDAC6 inhibition, symbol",HDAC6; SAMDI,NI (No significant Inhibition (below 20% Inhibition))
same,IC50,"[5]; Homo sapiens, LNCaP",16.2 ± 1.11 µM
